Paper PMC11542593, “Vascular endothelial growth factor receptor 2 as a potential host target for the inhibition of enterovirus replication” (Journal of Virology, 2024)
Structures can show the parent of a compound that is named as a salt.

Tests used:
[1] = CellTiter-Glo luminescent cell viability assay (cytotoxicity); details: human
Procedure: Fig. S1. (A) RD cells were treated with the indicated concentrations of inhibitors and incubated at 37°C for 24 h. CellTiter‐Glo® luminescent cell viability assay was used to measure the CC50 of selected inhibitors. […] (B) RD cells treated with the selected inhibitors (10 μM) were inoculated with EV-A71 at an MOI of 0.01. At 48 hpi, cells were harvested to detect the expression level of VP1 by western blotting.

EV-A71 [2] = assay: Viral load reduction assay in RD cells (RT-qPCR, TCID50, VP1 Western blot); type: cell-based, Human enterovirus A71; details: for EV-A71 viral load and viral titer, dose dependence: indicated noncytotoxic concentrations, MOI 0.1, 24 h; for EV-A71 viral load and viral titer in cell lysates and supernatant: 10 μM, MOI 0.01, 24 h
Procedure: Detection of cellular mRNA expression and viral load was performed as described previously ([24]). In brief, the infected or mock-infected cells were lysed and applied to total RNA extraction by using the MiniBEST Universal RNA Extraction Kit (TaKaRa, Code No.9767). Viral RNA in the supernatant was extracted with the MiniBEST Viral RNA Extraction Kit (TaKaRa, Code No.9766). Reverse transcription was performed using the PrimeScript RT reagent Kit (TaKaRa, Code No.PR037A) with an oligo (dT) primer. The resultant cDNAs were used for qPCR assay with the Light Cycler 480 SYBR Green I Master Mix (Roche) to measure the mRNA expression level of cellular genes or viral load in supernatants. The relative viral gene copy was determined by RT-qPCR, using GAPDH as an internal reference.
The viral titer in the indicated samples was determined by TCID50 assay as described previously ([25]). Briefly, serially diluted samples from 10^−1 to 10^−8 in DMEM were inoculated to RD cells, BGMK cells, or MRC-5 in 96‐well plates. The cells were then incubated for 2 to 3 days at 37°C. TCID50 was calculated by counting the wells with cytopathic effect in infected cells using the Reed–Muench method.
(§1) Western blot analysis was performed as described previously ([26]). In brief, the indicated cell samples were lysed in RIPA buffer supplemented with protease inhibitors (Thermo Fisher Scientific, 78430). The cell lysates were then separated in 10% SDS-PAGE and transferred to a 0.45-µm nitrocellulose membrane. After blocking, the membrane was incubated with an against VP1 antibody (GeneTex, GTX132339), VEGFR1 antibody (Abcam, ab32152), VEGFR2 antibody (Abcam, ab134191), phosphorylated VEGFR2 antibody (Tyr951) (CST 4991), VEGFR3 antibody (Beyotime, AF6918), Akt antibody (CST 4685), phosphorylated Akt antibody (CST 4060), or GAPDH antibody (GeneTex, GTX627408) diluted 1:5,000 in primary antibody dilution buffer overnight at 4°C, followed by corresponding secondary staining. The blots were visualized by western horseradish peroxidase substrate and imaged with Gel Doc XR+.
The results represent cell viability in the EV-A71-infected RD cells or 2D human intestinal organoids treated with DMSO (Negative control), Pirodavir (Positive control), or indicated VEGFR inhibitor (10 µM) relative to those in mock-infected RD cells or 2D human intestinal organoids. […] Significant inhibition of EV-A71 infection was found for both cell lysate (left) and supernatant (right) using RT-qPCR analysis. The results represent the viral load in the cells treated with indicated inhibitors relative to that in DMSO-treated cells. (C) Viral titer was also determined for inhibitor-treated samples in TCID50 assays. […] (D) Representative images of immunofluorescence assay for selected inhibitors using Rabbit anti‐VP1 antibody (green). Nuclei are counterstained with DAPI (blue). Scale bar, 50 µm.
Nuclei are counterstained with DAPI (blue). Scale bar, 50 µm.
Fig. S2. […] The results represent the viral load in the cells treated with indicated concentration of VEGFR inhibitors relative to that in DMSO-treated cells. Viral titer was also determined for samples treated with indicated concentrations of VEGFR inhibitors in TCID50 assays.
(§2) Fig. S7. Viral reduction in RD cells with Src inhibitor treatment. […] Significant inhibition of EV-A71 infection was found for both cell lysate (left) and supernatant (middle) using RT-qPCR analysis. The results represent the viral load in the cells treated with Dasatinib relative to that in DMSO-treated cells. Viral titer was also determined for inhibitor-treated samples in TCID50 assays (right). […] (C) VP1 protein levels were measured for samples treated with DMSO or Dasatinib using western blotting.
Fig. S8. Viral reduction in RD cells with Akt inhibitor treatment. […] Significant inhibition of EV-A71 infection was found for both cell lysate (left) and supernatant (middle) using RT-qPCR analysis. […]

EV-A71 [3] = assay: Cytopathic effect (CPE) inhibition assay in RD cells; type: cell-based, Human enterovirus A71; details: EV-A71, RD cells; for EC50: Enterovirus A, EVA71, read-out: EC50, compound concentration required to achieve 50% protection from virus-induced cytopathogenicity
Akt phosphorylation = assay: Western blot of phosphorylated Akt and total Akt in RD cells; type: cell-based; details: total Akt levels unaltered
Procedure: as §1
as §2, with “S8.” for “S7.”, “Akt” for “Src”, “MK-2206” for “Dasatinib”, “The levels of VP1, phosphorylated Akt and total Akt” for “VP1”, “protein” for “protein levels”
Fig. S9. […] (A) RD cells were infected with EV-A71 at an MOI of 1, and cell lysates were collected at the indicated times. Western blotting assays were then performed to assess the levels of phosphorylated Akt and total Akt. (B)The plasmids pVEGFR2 or pEmpty vector were transfected into RD cells. At the indicated times post-transfection, cells were harvested to detect the expression levels of phosphorylated Akt and total Akt by western blotting. […] Western blotting assays were then performed to assess the levels of phosphorylated Akt and total Akt. […] At 1 hpi, cells were harvested to detect the expression levels of phosphorylated Akt and total Akt by western blotting. […]

SMILES	CC50 at 24 h ([1]; RD cells)	EV-A71 viral load and viral titer, dose dependence (EV-A71 [2])	CC50 at 24 h [1]	SI (selectivity index), ratio CC50/EC50 (EV-A71 [3])	EC50 (EV-A71 [3])	EV-A71 viral load and viral titer in cell lysates and supernatant (EV-A71 [2])	EV-A71 structural protein VP1 expression (Western blot) (EV-A71 [2]; vs DMSO)	Akt phosphorylation following EV-A71 infection (Akt phosphorylation)
CNC(=O)c1ccccc1Sc1ccc2c(/C=C/c3ccccn3)n[nH]c2c1 [Axitinib]	104 ± 17.6 µM	dose-dependent inhibition						
Cc1cc2c(F)c(Oc3ncnn4cc(OC[C@@H](C)O)c(C)c34)ccc2[nH]1 [Brivanib]		dose-dependent inhibition	41.3 ± 2.83 µM	21.28	1.94 ± 0.33 µM			
Cc1nc(Nc2ncc(C(=O)Nc3c(C)cccc3Cl)s2)cc(N2CCN(CCO)CC2)n1 [Dasatinib]						significantly reduced	markedly decreased	
NC1(c2ccc(-c3nc4ccn5c(=O)[nH]nc5c4cc3-c3ccccc3)cc2)CCC1 [MK-2206, MK-2206 dihydrochloride]						significantly suppressed		significantly inhibited Akt phosphorylation
CCOC(=O)c1ccc(OCCC2CCN(c3ccc(C)nn3)CC2)cc1 [Pirodavir]			52.9 ± 1.25 µM	120.14	0.44 ± 0.08 µM			
Cc1[nH]c(/C=C2\C(=O)Nc3ccc(F)cc32)c(C)c1C(=O)NC[C@H](O)CN1CCOCC1 [SU14813]	26.4 ± 6.09 µM	dose-dependent inhibition		15.23	1.73 ± 0.18 µM			
